Test results taken from ChEMBL document CHEMBL4396938, “New amide linked dimeric 1,2,3-triazoles bearing aryloxy scaffolds as a potent antiproliferative agents and EGFR tyrosine kinase phosphorylation inhibitors” (Bioorg Med Chem Lett, 2019).

Legend:
A549 [1] = assay: Antiproliferative activity against human A549 cells assessed as growth inhibition at 0.1 uM incubated for 24 hrs by MTT assay (reference value: 0%); assay type: functional; conditions: A549, 24 h, read-out: GI
A549 [2] = assay: Antiproliferative activity against human A549 cells assessed as growth inhibition at 1 uM incubated for 24 hrs by MTT assay (reference value: 0%); assay type: functional; conditions: A549, 24 h, read-out: GI
[3] = biological target: Epidermal growth factor receptor (Homo sapiens) (UniProt P00533); conditions: MCF7, at 10 µM
Epidermal growth factor receptor (Homo sapiens), sequence (P00533 whole entry): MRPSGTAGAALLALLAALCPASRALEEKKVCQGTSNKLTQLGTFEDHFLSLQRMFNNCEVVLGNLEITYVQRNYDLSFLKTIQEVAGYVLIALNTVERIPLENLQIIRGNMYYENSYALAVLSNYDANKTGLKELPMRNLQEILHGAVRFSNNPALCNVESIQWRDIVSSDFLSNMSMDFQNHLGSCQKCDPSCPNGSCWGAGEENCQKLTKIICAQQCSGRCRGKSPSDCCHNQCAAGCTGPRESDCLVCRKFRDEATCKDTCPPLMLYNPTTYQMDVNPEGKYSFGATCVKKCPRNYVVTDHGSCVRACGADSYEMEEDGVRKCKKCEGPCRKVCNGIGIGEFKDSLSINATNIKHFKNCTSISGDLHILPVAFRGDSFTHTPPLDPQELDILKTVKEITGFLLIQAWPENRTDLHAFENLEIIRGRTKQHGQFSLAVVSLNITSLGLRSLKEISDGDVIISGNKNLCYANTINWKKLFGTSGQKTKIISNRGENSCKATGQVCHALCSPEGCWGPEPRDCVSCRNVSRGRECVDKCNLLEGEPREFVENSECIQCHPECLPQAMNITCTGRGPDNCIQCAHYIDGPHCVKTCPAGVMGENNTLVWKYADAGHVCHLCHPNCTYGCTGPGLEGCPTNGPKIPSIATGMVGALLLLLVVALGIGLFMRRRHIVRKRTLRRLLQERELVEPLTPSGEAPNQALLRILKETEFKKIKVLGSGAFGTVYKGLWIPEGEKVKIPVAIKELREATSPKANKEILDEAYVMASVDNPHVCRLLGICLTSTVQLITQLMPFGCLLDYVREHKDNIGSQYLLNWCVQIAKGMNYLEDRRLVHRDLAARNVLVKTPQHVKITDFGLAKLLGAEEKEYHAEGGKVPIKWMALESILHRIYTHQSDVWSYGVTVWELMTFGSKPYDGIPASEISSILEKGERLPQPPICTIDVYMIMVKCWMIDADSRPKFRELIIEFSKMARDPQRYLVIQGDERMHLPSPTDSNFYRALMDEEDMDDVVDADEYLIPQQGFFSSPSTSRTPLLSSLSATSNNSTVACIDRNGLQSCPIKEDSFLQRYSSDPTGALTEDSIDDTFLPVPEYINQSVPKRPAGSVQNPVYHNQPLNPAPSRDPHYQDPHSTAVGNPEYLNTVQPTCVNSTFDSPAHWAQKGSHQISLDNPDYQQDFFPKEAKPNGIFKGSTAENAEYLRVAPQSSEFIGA
Description: Inhibition of EGFR in human MCF7 cells assessed as reduction in EGFR phosphorylation at 10 uM incubated for 48 hrs by Western blot analysis

MCF7 [4] = assay: Antiproliferative activity against human MCF7 cells assessed as growth inhibition at 10 uM incubated for 24 hrs by MTT assay (reference value: 0%); assay type: functional; conditions: MCF7, 24 h, read-out: GI
MCF7 [5] = assay: Antiproliferative activity against human MCF7 cells assessed as reduction in cell growth incubated for 24 hrs by MTT assay; assay type: functional, cell-based; conditions: MCF7, 24 h
A549 [6] = assay: Antiproliferative activity against human A549 cells assessed as reduction in cell growth incubated for 24 hrs by MTT assay; assay type: functional, cell-based; conditions: A549, 24 h
MCF7 [7] = assay: Antiproliferative activity against human MCF7 cells assessed as growth inhibition at 1 uM incubated for 24 hrs by MTT assay (reference value: 0%); assay type: functional; conditions: MCF7, 24 h, read-out: GI
A549 [8] = assay: Antiproliferative activity against human A549 cells assessed as growth inhibition at 10 uM incubated for 24 hrs by MTT assay (reference value: 0%); assay type: functional; conditions: A549, 24 h, read-out: GI
MCF7 [9] = assay: Antiproliferative activity against human MCF7 cells assessed as growth inhibition at 0.1 uM incubated for 24 hrs by MTT assay (reference value: 0%); assay type: functional; conditions: MCF7, 24 h, read-out: GI
[10] = Selectivity index, ratio of cytotoxic IC50 for human MCF10A cells to antiproliferative IC50 for human MCF7 cells; assay type: toxicity; conditions: MCF10A cells and MCF7 cells, read-out: Ratio IC50
MCF-10A = assay: Cytotoxicity against human MCF10A cells assessed as reduction in cell viability incubated for 24 hrs by MTT assay; assay type: ADME, cell-based

inhibition [3]	IC50 (MCF7 [5])	IC50 (A549 [6])	SMILES	inhibition of growth at 0.1 µM (A549 [1])	inhibition of growth at 1 µM (A549 [2])	inhibition of growth at 10 µM (MCF7 [4])	inhibition of growth at 1 µM (MCF7 [7])	inhibition of growth at 10 µM (A549 [8])	inhibition of growth at 0.1 µM (MCF7 [9])	selectivity ratio [10]	IC50 (MCF-10A)
28.2%	6.7 µM	5.56 µM	Cc1ccc(NC(=O)Cn2cc(COc3ccccc3OCc3cn(CC(=O)Nc4ccc(C)cc4)nn3)nn2)cc1	8.92%	12.8%	63.8%	25.7%	86.6%	25.4%	–	–
–	–	2.22 µM	O=C(Cn1cc(COc2cccc(OCc3cn(CC(=O)Nc4ccc([N+](=O)[O-])cc4)nn3)c2)nn1)Nc1ccc([N+](=O)[O-])cc1	25.5%	42.4%	5.44%	4.58%	98.6%	4.96%	–	–
–	–	2.34 µM	COc1ccc(NC(=O)Cn2cc(COc3cccc(OCc4cn(CC(=O)Nc5ccc(OC)cc5)nn4)c3)nn2)cc1	7.26%	42.8%	33.3%	11.1%	94.5%	11.9%	–	–
72.7%	2.8 µM	5.61 µM	O=C(Cn1cc(COc2ccccc2OCc2cn(CC(=O)Nc3ccc(Cl)cc3)nn2)nn1)Nc1ccc(Cl)cc1	1.89%	25.4%	79.9%	42.9%	73.5%	39%	5	14 µM
88.3%	4.18 µM	–	COc1ccc(NC(=O)Cn2cc(COc3ccccc3OCc3cn(CC(=O)Nc4ccc(OC)cc4)nn3)nn2)cc1	5.57%	6.56%	96%	24%	15.4%	18.4%	8	33.4 µM
32.6%	6.13 µM	–	O=C(Cn1cc(COc2cccc(OCc3cn(CC(=O)Nc4ccc(Cl)cc4)nn3)c2)nn1)Nc1ccc(Cl)cc1	1.16%	-0.17%	64%	31.7%	3.36%	16.2%	–	–

More lines, now with the values behind:

SMILES	inhibition [3]	IC50 (MCF7 [5])	IC50 (A549 [6])	inhibition of growth at 0.1 µM (A549 [1])	inhibition of growth at 1 µM (A549 [2])	inhibition of growth at 10 µM (MCF7 [4])	inhibition of growth at 1 µM (MCF7 [7])	inhibition of growth at 10 µM (A549 [8])	inhibition of growth at 0.1 µM (MCF7 [9])	selectivity ratio [10]	IC50 (MCF-10A)
O=C(Cn1cc(COc2ccccc2OCc2cn(CC(=O)Nc3ccccc3)nn2)nn1)Nc1ccccc1	–	–	–	0%	6.8%	12.9%	12.1%	44.3%	11.3%	–	–
O=C(Cn1cc(COc2ccccc2OCc2cn(CC(=O)Nc3ccc([N+](=O)[O-])cc3)nn2)nn1)Nc1ccc([N+](=O)[O-])cc1	–	–	–	5.9%	10.7%	12.7%	15%	11.8%	14.2%	–	–
O=C(Cn1cc(COc2cccc(OCc3cn(CC(=O)Nc4ccccc4)nn3)c2)nn1)Nc1ccccc1	–	–	7.05 µM	11.4%	10.8%	22.1%	13.8%	69.2%	14.5%	–	–
Cc1ccc(NC(=O)Cn2cc(COc3cccc(OCc4cn(CC(=O)Nc5ccc(C)cc5)nn4)c3)nn2)cc1	76.9%	6.01 µM	–	0%	7.51%	82.6%	9.47%	34.1%	5.16%	–	–
